Structures can show the parent of a compound that is named as a salt.
Target: T1, recombinant human PARP (Homo sapiens, UniProt P09874)
T1 construct: purchased Trevigen 4667-02X
Assay: PARP enzyme activity inhibitory action
Type: biochemical
Conditions: recombinant human PARP (Trevigen), 3H-NAD, activated DNA, 25° C. for 15 min
Protocol: After incubation at 25° C. for 15 min., the reaction was stopped by adding 20% trichloroacetic acid, and the resulting acid insoluble fraction was adsorbed to a GF/B filter. Then, the filter was washed several times with 5% trichloroacetic acid, and the radioactivity on the filter was measured with a liquid scintillation counter.

T1 sequence (P09874 whole entry): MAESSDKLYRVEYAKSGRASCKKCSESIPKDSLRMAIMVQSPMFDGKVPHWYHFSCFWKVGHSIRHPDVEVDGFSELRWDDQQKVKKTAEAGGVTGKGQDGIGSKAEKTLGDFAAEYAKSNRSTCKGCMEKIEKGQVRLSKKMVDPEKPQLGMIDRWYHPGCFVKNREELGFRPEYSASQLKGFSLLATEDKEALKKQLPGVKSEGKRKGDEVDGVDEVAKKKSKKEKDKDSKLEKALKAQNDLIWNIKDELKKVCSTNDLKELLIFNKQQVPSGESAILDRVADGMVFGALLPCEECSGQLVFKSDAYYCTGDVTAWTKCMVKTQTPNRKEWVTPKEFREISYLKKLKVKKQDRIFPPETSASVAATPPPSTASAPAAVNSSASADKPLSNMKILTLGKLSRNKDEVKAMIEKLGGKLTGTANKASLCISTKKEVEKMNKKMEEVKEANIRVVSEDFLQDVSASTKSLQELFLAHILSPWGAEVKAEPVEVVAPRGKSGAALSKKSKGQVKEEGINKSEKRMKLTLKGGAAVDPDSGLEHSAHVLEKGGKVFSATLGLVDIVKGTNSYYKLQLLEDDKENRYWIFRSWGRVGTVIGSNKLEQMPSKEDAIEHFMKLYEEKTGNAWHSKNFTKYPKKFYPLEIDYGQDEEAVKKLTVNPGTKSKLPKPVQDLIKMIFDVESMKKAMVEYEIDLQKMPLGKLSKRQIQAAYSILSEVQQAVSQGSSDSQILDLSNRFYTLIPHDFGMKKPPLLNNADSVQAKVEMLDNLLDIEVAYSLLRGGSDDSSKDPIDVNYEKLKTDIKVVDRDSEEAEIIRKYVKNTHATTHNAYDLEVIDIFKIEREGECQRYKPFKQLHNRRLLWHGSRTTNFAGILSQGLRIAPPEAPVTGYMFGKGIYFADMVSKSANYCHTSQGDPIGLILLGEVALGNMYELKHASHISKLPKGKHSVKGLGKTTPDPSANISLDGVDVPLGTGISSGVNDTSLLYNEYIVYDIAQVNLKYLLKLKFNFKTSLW

Question: For `Cc1[nH]c(=O)c2cc(F)ccc2c1CN1CCCC1` [Ex. 28, 7-Fluoro-3-methyl-4-((pyrrolidin-1-yl)methyl)-2H-isoquinolin-1-one], which IC50 is on record?
Answer: 45 nM

Question: Which IC50 does the source give for `CN1CCC(c2nn(C)c3[nH]c(=O)c4cc(F)ccc4c23)CC1` [Ex. 222, 7-Fluoro-1-(1-methylpiperidin-4-yl)-3-methyl-pyrazolo[3,4-c]isoquinolin-5(4H)-one] here?
Answer: 44 nM

Question: Which IC50 does the source give for `CCCN1CCC(c2nn(C)c3[nH]c(=O)c4ccccc4c23)CC1` [Ex. 226, 1-(1-Propylpiperidin-4-yl)-3-methyl-pyrazolo[3,4-c]isoquinolin-5(4H)-one] here?
Answer: 47 nM

Question: Which IC50 does the source give for `Cc1[nH]c(=O)c2ccccc2c1CN1CCCC1` [Ex. 25, 3-Methyl-4-(pyrrolidin-1-yl)methyl-2H-isoquinolin-1-one] here?
Answer: 67 nM

Question: Which IC50 does the source give for `O=c1[nH]cc(C2CCNCC2)c2ccccc12` [Ex. 31, 4-(piperidin-4-yl)-2H-isoquinolin-1-one hydrochloride] here?
Answer: 31 nM

Question: With `Cn1nc(CN2CCCC2)c2c3ccccc3c(=O)[nH]c21` [Ex. 7, 3-methyl-1-(pyrrolidin-1-yl)methyl-3H-pyrazolo[3,4-c]isoquinolin-5(4H)-one] as the molecule, how does the IC50 read?
Answer: 32 nM

Question: For `O=c1[nH]cc(C2CCN(CCO)CC2)c2ccc(F)cc12` [Ex. 48, 7-Fluoro-4-(1-(2-hydroxyethyl)piperidin-4-yl)-2H-isoquinolin-1-one hydrochloride], which IC50 is on record?
Answer: 24 nM

Question: With `CCN1CCC(c2c[nH]c(=O)c3cc(F)ccc23)CC1` [Ex. 212, 7-Fluoro-4-(1-ethylpiperidin-4-yl)-2H-isoquinolin-1-one] as the molecule, how does the IC50 read?
Answer: 47 nM

Question: For `Cc1[nH]c(=O)c2cc(Cl)ccc2c1CN1CCCC1` [Ex. 27, 7-chloro-3-methyl-4-((pyrrolidin-1-yl)methyl)-2H-isoquinolin-1-one], which IC50 is on record?
Answer: 39 nM

Question: For `CN1CCN(Cc2nn(C)c3[nH]c(=O)c4ccccc4c23)CC1` [Ex. 21, 3-Methyl-1-((4-methylpiperazin-1-yl)methyl)-3H-pyrazolo[3,4-c]isoquinolin-5(4H)-one], which IC50 is on record?
Answer: 143 nM

Question: Which IC50 does the source give for `CN1CCC(c2nn(C)c3[nH]c(=O)c4ccccc4c23)CC1` [Ex. 209, 1-(1-methylpiperidin-4-yl)-3-methyl-pyrazolo[3,4-c]isoquinolin-5(4H)-one] here?
Answer: 43 nM

Question: Which IC50 does the source give for `CN1CCC(c2c[nH]c(=O)c3cc(F)ccc23)CC1` [Ex. 47, 7-Fluoro-4-(1-methylpiperidin-4-yl)-2H-isoquinolin-1-one hydrochloride] here?
Answer: 23 nM

Question: Which IC50 does the source give for `CN1CCC(c2c[nH]c(=O)c3ccccc23)CC1` [Ex. 33, 4-(1-methylpiperidin-4-yl)-2H-isoquinolin-1-one] here?
Answer: 40 nM

Question: With `CN(C)CC(=O)c1c(N)[nH]c(=O)c2cc(F)ccc12` [Ex. 14, 3-Amino-4-(2-(dimethylamino)acetyl)-7-fluoro-2H-isoquinolin-1-one hydrochloride] as the molecule, how does the IC50 read?
Answer: 40 nM

Question: With `CN1CCC(c2c[nH]c(=O)c3cc(Cl)ccc23)CC1` [Ex. 46, 7-Chloro-4-(1-methylpiperidin-4-yl)-2H-isoquinolin-1-one] as the molecule, how does the IC50 read?
Answer: 37 nM

Question: Which IC50 does the source give for `O=c1[nH]cc(C2CCNCC2)c2ccc(Cl)cc12` [Ex. 44, 7-Chloro-4-(piperidin-4-yl)-2H-isoquinolin-1-one hydrochloride] here?
Answer: 22 nM

Question: Which IC50 does the source give for `Cn1nc(C2CCNCC2)c2c3ccc(F)cc3c(=O)[nH]c21` [Ex. 221, 7-Fluoro-1-(piperidin-4-yl)-3-methyl-pyrazolo[3,4-c]isoquinolin-5(4H)-one hydrochloride] here?
Answer: 30 nM

Question: With `CCN1CCC(c2nn(C)c3[nH]c(=O)c4cc(F)ccc4c23)CC1` [Ex. 223, 1-(1-Ethylpiperidin-4-yl)-7-fluoro-3-methyl-pyrazolo[3,4-c]isoquinolin-5(4H)-one] as the molecule, how does the IC50 read?
Answer: 30 nM

Question: Which IC50 does the source give for `CCCN1CCC(c2nn(C)c3[nH]c(=O)c4cc(F)ccc4c23)CC1` [Ex. 225, 7-Fluoro-1-(1-propylpiperidin-4-yl)-3-methyl-pyrazolo[3,4-c]isoquinolin-5(4H)-one] here?
Answer: 42 nM

Question: Which IC50 does the source give for `O=c1[nH]cc(C2CCN(CCO)CC2)c2ccccc12` [Ex. 32, 4-(1-(2-hydroxyethyl)piperidin-4-yl)-2H-isoquinolin-1-one] here?
Answer: 34 nM

Question: Which IC50 does the source give for `O=C1NCCc2c(OCCCCN3CCCCC3)cccc21` [DPQ, 3,4-dihydro-5-[4-(1-piperidinyl)-butoxy]-1(2H)-isoquinolinone, reference compound] here?
Answer: 1000 nM

Question: Which IC50 does the source give for `CCN1CCC(c2nn(C)c3[nH]c(=O)c4ccccc4c23)CC1` [Ex. 210, 1-(1-Ethylpiperidin-4-yl)-3-methyl-pyrazolo[3,4-c]isoquinolin-5(4H)-one] here?
Answer: 25 nM

Question: Which IC50 does the source give for `CN(C)CC(=O)c1c(N)[nH]c(=O)c2ccccc12` [Ex. 1, 3-amino-4-(2-(dimethylamino)acetyl)-2H-isoquinolin-1-one hydrochloride monohydrate] here?
Answer: 43 nM

Question: With `O=c1[nH]cc(C2CCNCC2)c2ccc(F)cc12` [Ex. 45, 7-Fluoro-4-(piperidin-4-yl)-2H-isoquinolin-1-one hydrochloride] as the molecule, how does the IC50 read?
Answer: 22 nM

System: not given
Assay: not given
Conditions: not given

Question: With `CN1CCC(c2c[nH]c(=O)c3c(F)cccc23)CC1` as the molecule, how does the melting point read?
Answer: 227.6 to 229.3 °C

Question: For `Cc1ccc2c(C3CCN(C)CC3)c[nH]c(=O)c2c1`, which melting point is on record?
Answer: 212.8 to 214.8 °C

Question: Which melting point does the source give for `CN1CCC(c2c[nH]c(=O)c3cc(C(F)(F)F)ccc23)CC1` (as salt: hydrochloride) [Example 198, 4-(1-Methylpiperidin-4-yl)-7-trifluoromethyl-2H-isoquinolin-1-one] here?
Answer: 231.8 to 234.6 °C

Question: For `COc1ccc2c(C3CCN(C)CC3)c[nH]c(=O)c2c1` [Example 201, 7-Methoxy-4-(1-methylpiperidin-4-yl)-2H-isoquinolin-1-one], which melting point is on record?
Answer: 224.9 to 226.2 °C

Source: patent publication US7501412B2, “Isoquinoline compounds and medicinal use thereof” (Mitsubishi Tanabe Pharma Corporation, priority 2002, dated 2009)
